{"source": "patent US6936285B1", "about": "“Use of Ginkgo biloba extracts for preparing a medicine” (Societe de Conseils de Recherches d'Application …, priority 1997, dated 2005)", "tested_on": "rats", "experiment": "Behavioural sensitization to amphetamine (motor hyperactivity measured by actimetry)", "conditions": "amphetamine 0.5 mg/kg IP, ginkgolide A 5 mg/kg per day oral"}
{"smiles": "C[C@@H]1C(=O)O[C@H]2C[C@@]34[C@H]5C[C@@H](C(C)(C)C)[C@]36[C@@H](OC(=O)[C@@H]6O)O[C@@]4(C(=O)O5)[C@]21O", "note": "[ginkgolide A]", "values": [{"measurement": "behavioural sensitization to amphetamine", "result": "reduced"}]}
